Measurements: patent US20260053171A1, “METHANOGEN INHIBITORS” (AGRIZERONZ LIMITED PARTNERSHIP, priority 2022, published 2026)

Tested on: methane production in rumen fluid
Assay: Rumen in vitro (RIV) assay, methane production from rumen fluid incubations
Format: cell-based, cattle
Details: for inhibition at 10 µM / inhibition at 50 µM / inhibition at 2 µM: Bos taurus, read-out: RIV % methane reduction +/− SD; for inhibition (methane, RIV positive control): 30 μM
Experimental: The compounds of the present invention were initially screened for activity using an in vitro fully automated incubation system for the measurement of total gas production and gas composition (methane and hydrogen). The system used is described in detail in the paper by Muetzel et al. (2014; Animal Feed Science and Technology 196, 1-11). The system in this specification is referred to as the rumen in vitro system or RIV. The RIV system provides a relatively simple tool for determining the rate and production of methane and also whether the rate and production of methane is inhibited or reduced by a particular compound or feed. Rumen in vitro assays use rumen fluid from donor animals (typically either sheep or cattle) which is typically combined with a buffer and then incubated in sealed fermentation vessels at 39° C. for either 24 or 48 h. These assays systems have been well-characterised and used by the scientific community over the last two decades (Rymer et al. 2005). The system that has been used here to characterise the effects of inhibitors on methane production and gas production, and the formation of H2, was described by Muetzel et al. (2014). Rumen in vitro assay systems reflect what can occur in the rumen in vivo, but only short-term, due to their short incubation times (typically not exceeding 48 h) which is limited by its buffering capacity and the fact that it is a closed system. Stock solutions of inhibitors were re-suspended in dimethylformamide (DMF) at concentrations 1000-fold higher than the highest used for the assays. Any further dilutions were also prepared using DMF. The total amount of inhibitor solution added to the rumen fluid-buffer mixture (60 mL) was 60 μl. Incubations used 60 ml of medium containing 12 ml of filtered rumen fluid and 48 ml of buffer in serum bottles for 24-48 h, essentially as described by Muetzel et al. (2014). Two fistulated cattle were used as donor animals for rumen fluid and treatments were incubated in duplicate bottles. Sets of duplicate incubation vials that contained ryegrass (with rumen fluid-buffer mixture), and ryegrass with 30 μM bromoethanesulfonate (BES) were also incubated as negative and positive controls, respectively. One experiment consists of 2 replicates of an inhibitor at any one concentration run at the same time, and a run can contain up to 32 bottle, including positive (30 µM BES) and negative (no inhibitor added) controls. Compound 1, for example, was tested using the 60 mL rumen in vitro assay system at 50 μM, 10 μM, and 2 μM final concentrations and compared to a positive control with 30 µM BES.

SMILES	inhibition at 10 µM (10 μM) [%]	inhibition at 50 µM (50 μM) [%]	inhibition at 2 µM (2 μM) [%]	further results
O=C(O)CCC(=O)N1N=C(c2ccc(-c3ccc4[nH]ccc4c3)cc2)CC1c1ccc2nccnc2c1 (centres unmarked) [Compound 106, 4-(3-(4-(1H-Indol-5-yl)phenyl)-5-(quinoxalin-6-yl)-4,5-dihydro-1H-pyrazol-1-yl)-4-oxobutanoic acid]	< 5	26 ± 2.5		
CS(=O)(=O)NC(=O)c1cccc(N2N=C(c3ccc(Cl)cc3)CC2c2ccc3nccnc3c2)c1 (centres unmarked) [Compound 72, 3-(3-(4-Chlorophenyl)-5-(quinoxalin-6-yl)-4,5-dihydro-1H-pyrazol-1-yl)-N-(methylsulfonyl)benzamide]	82.5 ± 2.5		14.3 ± 4.7	
CC(C)Oc1ccc(-c2ccc(C3=NN(C(=O)CCC(=O)NS(=O)(=O)C(C)C)C(c4ccc5nccnc5c4)C3)cc2)cc1 (centres unmarked) [Compound 120, 4-(3-(4′-Isopropoxy-[1,1′-biphenyl]-4-yl)-5-(quinoxalin-6-yl)-4,5-dihydro-1H-pyrazol-1-yl)-N-(isopropylsulfonyl)-4-oxobutanamide]	70.4 ± 5.5		12.6 ± 1.4	
CC(C)S(=O)(=O)NC(=O)CCC(=O)N1N=C(c2cccc(-c3ccccc3)c2)CC1c1ccc2nccnc2c1 (centres unmarked) [Compound 119, 4-(3-([1,1′-Biphenyl]-3-yl)-5-(quinoxalin-6-yl)-4,5-dihydro-1H-pyrazol-1-yl)-N-(isopropylsulfonyl)-4-oxobutanamide]	81.8 ± 2.7		11.9 ± 2.7	
O=C(O)CCC(=O)N1N=C(c2ccc(Br)cc2)CC1c1ccc2nccnc2c1 (centres unmarked) [Compound 9, 4-(3-(4-Bromophenyl)-5-(quinoxalin-6-yl)-4,5-dihydro-1H-pyrazol-1-yl)-4-oxobutanoic acid]		64.9 ± 1.9		
COc1ccc(C2CC(c3ccc(Cl)cc3)=NN2C(=O)CCC(=O)O)c(OC)c1 (centres unmarked) [Compound 42, 4-(3-(4-Chlorophenyl)-5-(2,4-dimethoxyphenyl)-4,5-dihydro-1H-pyrazol-1-yl)-4-oxobutanoic acid]	10.5 ± 3.5	80 ± 4.7		
CC(C)Oc1ccc(-c2ccc(C3=NN(C(=O)CCC(=O)NS(C)(=O)=O)C(c4ccc5nccnc5c4)C3)cc2)cc1 (centres unmarked) [Compound 117, 4-(3-(4′-Isopropoxy-[1,1′-biphenyl]-4-yl)-5-(quinoxalin-6-yl)-4,5-dihydro-1H-pyrazol-1-yl)-N-(methylsulfonyl)-4-oxobutanamide]	72.5 ± 4		9.1 ± 2.4	
COc1cc(C2CC(c3ccc(Cl)cc3)=NN2C(=O)CCC(=O)O)ccc1F (centres unmarked) [Compound 48, 4-(3-(4-Chlorophenyl)-5-(4-fluoro-3-methoxyphenyl)-4,5-dihydro-1H-pyrazol-1-yl)-4-oxobutanoic acid]		43.6 ± 4.5		
O=C(O)CCC(=O)N1N=C(c2cccc(-c3cccc(OC(F)(F)F)c3)c2)CC1c1ccc2nccnc2c1 (centres unmarked) [Compound 98, 4-Oxo-4-(5-(quinoxalin-6-yl)-3-(3′-(trifluoromethoxy)-[1,1′-biphenyl]-3-yl)-4,5-dihydro-1H-pyrazol-1-yl)butanoic acid]	15.6 ± 0.6	91 ± 2.7		
CS(=O)(=O)NC(=O)CCC(=O)N1N=C(c2ccc(OC(F)(F)F)cc2)CC1c1ccc2nccnc2c1 (centres unmarked) [Compound 116, N-(Methylsulfonyl)-4-oxo-4-(5-(quinoxalin-6-yl)-3-(4-(trifluoromethoxy)phenyl)-4,5-dihydro-1H-pyrazol-1-yl) butanamide]				RIV % methane reduction +/− SD (2 μM): <5%; RIV % methane reduction +/− SD (10 μM): 72.4 ± 10.6%; RIV % methane reduction +/− SD (50 μM): 93.9 ± 4.7%
COCCOc1ccc(-c2ccc(C3=NN(C(=O)CCC(=O)O)C(c4ccc5nccnc5c4)C3)cc2)cc1 (centres unmarked) [Compound 91, 4-(3-(4′-(2-Methoxyethoxy)-[1,1′-biphenyl]-4-yl)-5-(quinoxalin-6-yl)-4,5-dihydro-1H-pyrazol-1-yl)-4-oxobutanoic acid]	73.2 ± 2.8		< 5	
CN(C)S(=O)(=O)NC(=O)CCC(=O)N1N=C(c2ccc(Cl)cc2)CC1c1ccc2nccnc2c1 (centres unmarked) [Compound 59, 4-(3-(4-Chlorophenyl)-5-(quinoxalin-6-yl)-4,5-dihydro-1H-pyrazol-1-yl)-N—(N,N-dimethylsulfamoyl)-4-oxobutanamide]	86.7 ± 7	94.4 ± 4	10.6 ± 2.5	
O=C(O)CCC(=O)N1N=C2c3cc(-c4ccccc4)ccc3CCC2C1c1ccc2nccnc2c1 (centres unmarked) [Compound 74, 4-Oxo-4-(8-phenyl-3-(quinoxalin-6-yl)-3,3a,4,5-tetrahydro-2H-benzo[g]indazol-2-yl)butanoic acid]	87.8 ± 0.7	97.2 ± 0.5	9 ± 1.9	
O=C(CCC(=O)N1N=C(c2cccc(-c3ccccc3)c2)CC1c1ccc2nccnc2c1)NS(=O)(=O)c1ccccc1 (centres unmarked) [Compound 122, 4-(3-([1,1′-Biphenyl]-3-yl)-5-(quinoxalin-6-yl)-4,5-dihydro-1H-pyrazol-1-yl)-4-oxo-N-(phenylsulfonyl) butanamide]	78.9 ± 2.3		7.4 ± 4.7	
O=S(=O)(O)CCBr [BES, bromoethanesulfonate, reference compound]				inhibition (methane, RIV positive control) (at 10 hours): 70.5%; inhibition (methane, RIV positive control) (at 18 hours): 55.6%
CC(C)Oc1ccc(-c2ccc(C3=NN(C(=O)CCC(=O)O)C(c4ccc5nccnc5c4)C3)cc2)cc1F (centres unmarked) [Compound 100, 4-(3-(3′-Fluoro-4′-isopropoxy-[1,1′-biphenyl]-4-yl)-5-(quinoxalin-6-yl)-4,5-dihydro-1H-pyrazol-1-yl)-4-oxobutanoic acid]	89.2 ± 3		25 ± 7.8	
O=C(O)CCC(=O)N1N=C(c2ccc(Cl)cc2)CC1c1ccc2nsnc2c1 (centres unmarked) [Compound 36, 4-(5-(Benzo[c][1,2,5]thiadiazol-5-yl)-3-(4-chlorophenyl)-4,5-dihydro-1H-pyrazol-1-yl)-4-oxobutanoic acid]	33.4 ± 2.3	91.3 ± 0.2		
O=C(O)CCC(=O)N1N=C2c3ccc(-c4ccccc4)cc3CCC2C1c1ccc2nccnc2c1 (centres unmarked) [Compound 75, 4-Oxo-4-(7-phenyl-3-(quinoxalin-6-yl)-3,3a,4,5-tetrahydro-2H-benzo[g]indazol-2-yl)butanoic acid]	87.5 ± 0.6	92.8 ± 0.5	15.8 ± 4.5	
CC(C)COc1ccc(-c2ccc(C3=NN(C(=O)CCC(=O)O)C(c4ccc5nccnc5c4)C3)cc2)cc1 (centres unmarked) [Compound 82, 4-(3-(4′-Isobutoxy-[1,1′-biphenyl]-4-yl)-5-(quinoxalin-6-yl)-4,5-dihydro-1H-pyrazol-1-yl)-4-oxobutanoic acid]	75.7 ± 4.6		9.3 ± 7.6	
O=C(O)CCC(=O)N1N=C(c2ccccc2)CC1c1ccc2nccnc2c1 (centres unmarked) [Compound 1A, 4-Oxo-4-(3-phenyl-5-(quinoxalin-6-yl)-4,5-dihydro-1H-pyrazol-1-yl)butanoic acid]		< 5		
CCC(C)Oc1ccc(-c2ccc(C3=NN(C(=O)CCC(=O)O)C(c4ccc5nccnc5c4)C3)cc2)cc1 (centres unmarked) [Compound 83, 4-(3-(4′-(sec-Butoxy)-[1,1′-biphenyl]-4-yl)-5-(quinoxalin-6-yl)-4,5-dihydro-1H-pyrazol-1-yl)-4-oxobutanoic acid]	69.2 ± 1.8		< 5	
O=C(O)CCC(=O)N1N=C(c2ccc(Cl)cc2)CC1c1ccc2c(c1)OC(F)(F)O2 (centres unmarked) [Compound 38, 4-(3-(4-Chlorophenyl)-5-(2,2-difluorobenzo[d][1,3]dioxol-5-yl)-4,5-dihydro-1H-pyrazol-1-yl)-4-oxobutanoic acid]	55.8 ± 1.8	93.4 ± 0.5		
CN(C)S(=O)(=O)NC(=O)CCC(=O)N1N=C(c2cccc(-c3ccccc3)c2)CC1c1ccc2nccnc2c1 (centres unmarked) [Compound 127, 4-(3-([1,1′-Biphenyl]-3-yl)-5-(quinoxalin-6-yl)-4,5-dihydro-1H-pyrazol-1-yl)-N—(N,N-dimethylsulfamoyl)-4-oxobutanamide]	84.1 ± 3		16.8 ± 0.7	
Cc1ccc(S(=O)(=O)NC(=O)CCC(=O)N2N=C(c3ccc(Cl)cc3)CC2c2ccc3nccnc3c2)cc1 (centres unmarked) [Compound 125, 4-(3-(4-Chlorophenyl)-5-(quinoxalin-6-yl)-4,5-dihydro-1H-pyrazol-1-yl)-4-oxo-N-tosylbutanamide]	21.8 ± 5.7			
CCOc1ccc(-c2ccc(C3=NN(C(=O)CCC(=O)O)C(c4ccc5nccnc5c4)C3)cc2)cc1 (centres unmarked) [Compound 79, 4-(3-(4′-Ethoxy-[1,1′-biphenyl]-4-yl)-5-(quinoxalin-6-yl)-4,5-dihydro-1H-pyrazol-1-yl)-4-oxobutanoic acid]	81.5 ± 0.1		25.2 ± 2.5	
